Data on seven compounds can be found in patent US7432260B2, “Pyrimidine compounds” (Cyclacel Limted, priority 2002, dated 2008).

Experiment [1] concerns HT29. Nature of the experiment: 72-h MTT cytotoxicity assay HT29. It counts as cell-based. The note with it: Homo sapiens, HT-29, 72 h, Table 4. As for the experimental part:
(§1) MTT cytotoxicity assay. […] Standard 72-h MTT (thiazolyl blue; 3-[4,5-dimethylthiazol-2-yl]-2,5-diphenyltetrazolium bromide) assays were performed (Haselsberger, K.; Peterson, D. C.; Thomas, D. G.; Darling, J. L. Anti Cancer Drugs 1996, 7, 331-8; Loveland, B. E.; Johns, T. G.; Mackay, I. R.; Vaillant, F.; Wang, Z. X.; Hertzog, P. J. Biochemistry International 1992, 27, 501-10). In short: cells were seeded into 96-well plates according to doubling time and incubated overnight at 37° C. Test compounds were made up in DMSO and a 1/3 dilution series prepared in 100 μL cell media, added to cells (in triplicates) and incubated for 72 ho at 37° C. MTT was made up as a stock of 5 mg/mL in cell media and filter-sterilised. Media was removed from cells followed by a wash with 200 μL PBS.
(§2) MTT solution was then added at 20 μL per well and incubated in the dark at 37° C. for 4 h. MTT solution was removed and cells again washed with 200 μL PBS. MTT dye was solubilised with 200 μL per well of DMSO with agitation.
(Tetrazolium assays rely on reduction of a dye to a coloured formazan, in cell work by metabolically active cells.)

Experiment [2] concerns the target CDK2/cyclin E (Homo sapiens, UniProt P24941). Nature of the experiment: Kinase assay CDK2/cyclin E. The format is biochemical. The note with it: Table 2; read-out: Kinase Inhibition IC50 CDK2 cyclin E. The method, then: (§3) Kinase assays. […] This was achieved by measurement of incorporation of radioactive phosphate from ATP into appropriate polypeptide substrates. Recombinant protein kinases and kinase complexes were produced or obtained commercially. Assays were performed using 96-well plates and appropriate assay buffers (typically 25 mM β-glycerophosphate, 20 mM MOPS, 5 mM EGTA, 1 mM DTT, 1 mM […], pH 7.4), into which were added 2-4 μg of active enzyme with appropriate substrates. The reactions were initiated by addition of Mg/ATP mix (15 mM MgCl2+100 μM ATP with 30-50 kBq per well of [γ-^32P]-ATP) and mixtures incubated as required at 30° C. Reactions were stopped on ice, followed by filtration through p81 filterplates or GF/C filterplates (Whatman Polyfiltronics, Kent, UK). After washing 3 times with 75 mM aq orthophosphoric acid, plates were dried, scintillant added and incorporated radioactivity measured in a scintillation counter (TopCount, Packard Instruments, Pangbourne, Berks, UK). Compounds for kinase assay were made-up as 10 mM stocks in DMSO and diluted into 10% DMSO inrassay buffer.

In experiment [3] the test system is Saos-2. Kind of experiment: 72-h MTT cytotoxicity assay Saos-2. It counts as cell-based. The note with it: Homo sapiens, SAOS-2, 72 h, Table 4. The method, then:
as §1, §2

The target of experiment [4] is CDK1/cyclin B (Homo sapiens, UniProt P06493). Kind of experiment: Kinase assay CDK1/cyclin B. The note with it: Table 2; read-out: Kinase Inhibition IC50 CDK1 cyclin B. It counts as biochemical. The method, then:
as §3

In experiment [5] the test system is A549. Kind of experiment: 72-h MTT cytotoxicity assay A549. The format is cell-based. The note with it: Homo sapiens, A549, 72 h, Table 4. The method, then: as §1, §2
The target in experiment [6] is CDK2/cyclin A (Homo sapiens, UniProt P24941). Nature of the experiment: Kinase assay CDK2/cyclin A. The note with it: Table 2; read-out: Kinase Inhibition IC50 CDK2 cyclin A. It counts as biochemical. As for the experimental part:
as §3

Experiment [7] has as its target CDK4/cyclin D1 (Homo sapiens, UniProt P11802). Kind of experiment: Kinase assay CDK4/cyclin D1. The note with it: Table 2; read-out: Kinase Inhibition IC50 CDK4 cyclin D1. The format is biochemical. As for the experimental part:
as §3

Sequence of CDK4/cyclin D1 (P11802 whole entry): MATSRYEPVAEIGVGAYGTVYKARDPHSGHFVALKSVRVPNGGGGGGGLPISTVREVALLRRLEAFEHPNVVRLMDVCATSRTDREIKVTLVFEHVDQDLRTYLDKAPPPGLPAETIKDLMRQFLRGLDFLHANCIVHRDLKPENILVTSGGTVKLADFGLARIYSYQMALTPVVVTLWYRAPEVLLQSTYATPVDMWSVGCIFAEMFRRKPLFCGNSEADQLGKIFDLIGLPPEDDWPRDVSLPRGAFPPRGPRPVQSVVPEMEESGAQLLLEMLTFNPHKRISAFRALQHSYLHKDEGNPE
Sequence of CDK4/cyclin D1 (P24385 whole entry partner): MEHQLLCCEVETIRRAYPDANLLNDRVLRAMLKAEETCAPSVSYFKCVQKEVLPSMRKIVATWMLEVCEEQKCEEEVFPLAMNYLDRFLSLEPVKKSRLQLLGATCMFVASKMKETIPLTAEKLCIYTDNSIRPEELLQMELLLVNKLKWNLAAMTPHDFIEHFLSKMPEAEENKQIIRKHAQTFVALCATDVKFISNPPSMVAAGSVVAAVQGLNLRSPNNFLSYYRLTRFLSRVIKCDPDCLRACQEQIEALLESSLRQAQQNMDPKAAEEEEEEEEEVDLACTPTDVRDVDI
Sequence of CDK1/cyclin B (P06493 whole entry): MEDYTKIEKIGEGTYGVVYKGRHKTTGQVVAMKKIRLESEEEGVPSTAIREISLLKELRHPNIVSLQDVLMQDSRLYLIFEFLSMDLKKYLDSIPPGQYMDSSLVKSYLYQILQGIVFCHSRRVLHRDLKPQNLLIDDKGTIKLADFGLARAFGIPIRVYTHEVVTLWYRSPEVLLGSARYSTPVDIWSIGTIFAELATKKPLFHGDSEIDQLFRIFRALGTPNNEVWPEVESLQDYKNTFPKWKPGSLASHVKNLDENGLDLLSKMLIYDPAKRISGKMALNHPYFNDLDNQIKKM
Sequence of CDK1/cyclin B (P14635 whole entry partner): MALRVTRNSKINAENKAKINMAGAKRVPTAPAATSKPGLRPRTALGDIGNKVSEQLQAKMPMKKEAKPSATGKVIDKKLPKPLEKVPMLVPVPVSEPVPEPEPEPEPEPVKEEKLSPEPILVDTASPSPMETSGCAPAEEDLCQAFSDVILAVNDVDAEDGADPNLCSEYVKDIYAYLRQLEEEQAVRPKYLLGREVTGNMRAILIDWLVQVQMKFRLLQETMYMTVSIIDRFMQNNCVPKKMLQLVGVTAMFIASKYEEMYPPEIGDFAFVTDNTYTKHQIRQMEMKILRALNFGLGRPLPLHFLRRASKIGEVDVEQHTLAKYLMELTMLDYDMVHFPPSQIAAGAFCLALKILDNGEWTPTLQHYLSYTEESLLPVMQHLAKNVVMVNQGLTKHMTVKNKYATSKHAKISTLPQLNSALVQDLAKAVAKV

Turning to `Cc1nc(NC(=O)[C@@H](N)[C@H](C)O)sc1-c1ccnc(Nc2cccc([N+](=O)[O-])c2)n1` [Compound 17, (2S,3S)-2-Amino-3-hydroxy-N-{4-methyl-5-[2-(3-nitro-phenylamino)-pyrimidin-4-yl]-thiazol-2-yl}-butyramide], the IC50 (commonly the concentration at which inhibition is half-maximal) in experiment [1] was determined as 1.2 µM; in experiment [2], 0.21 µM; in experiment [3], 1.2 µM; in experiment [4], 2 µM; in experiment [5] it was 1.1 µM.
On to `Cc1nc(NC(=O)CN2CCN(C(=O)OC(C)(C)C)CC2)sc1-c1ccnc(Nc2cccc([N+](=O)[O-])c2)n1` [Compound 28, 4-({4-Methyl-5-[2-(3-nitro-phenylamino)-pyrimidin-4-yl]-thiazol-2-ylcarbamoyl}-methyl)-piperazine-1-carboxylic acid tert-butyl ester], for which the IC50 in experiment [1] was 6.74 µM; in experiment [2] it was 2.6 µM; in experiment [3], 15 µM; in experiment [6] it was 12 µM; in experiment [4] it was 36 µM; in experiment [5], 9.9 µM. Also, the IC50 in experiment [7] amounted to 29 µM.
In the case of `CNc1nc(C)c(-c2ccnc(Nc3cccc(CO)c3)n2)s1` [Compound 91, {3-[4-(4-Methyl-2-methylamino-thiazol-5-yl)-pyrimidin-2-ylamino]-phenyl}-methanol], the IC50 in experiment [2] stood at 0.11 µM; in experiment [6], 0.1 µM; in experiment [4], 0.12 µM; in experiment [7], 0.63 µM.
For the compound `Cc1nc(NS(C)(=O)=O)sc1-c1ccnc(Nc2ccc(F)cc2)n1` [Compound 31, N-{5-[2-(4-Fluoro-phenylamino)-pyrimidin-4-yl]-4-methyl-thiazol-2-yl}-methanesulfonamide], the concentration for half-maximal inhibition (IC50) in experiment [1] is 4.1 µM; in experiment [2], 0.3 µM; in experiment [3] it was 0.81 µM; in experiment [5], 2 µM; in experiment [7], 5.6 µM.
For the compound `Cc1nc(C)c(-c2ccnc(Nc3ccc(N4CCN(S(C)(=O)=O)CC4)cc3)n2)s1` [Compound 10, [4-(2,4-Dimethyl-thiazol-5-yl)-pyrimidin-2-yl]-[4-(4-methanesulfonyl-piperazin-1-yl)-phenyl]-amine], the IC50 in experiment [1] turned out to be 6.4 µM; in experiment [4] it was 51 µM; in experiment [5] it was 11 µM; in experiment [7], 11 µM.
Regarding `Cc1nc(NC(=O)CCl)sc1-c1ccnc(Nc2ccc(F)cc2)n1` [Compound 33, 2-Chloro-N-{5-[2-(4-fluoro-phenylamino)-pyrimidin-4-yl]-4-methyl-thiazol-2-yl}-acetamide], the IC50 in experiment [1] came out at 0.11 µM; in experiment [3], 0.3 µM; in experiment [5] it was 0.33 µM.
As to `CNc1nc(C)c(-c2ccnc(Nc3ccc(N4CCNCC4)cc3)n2)s1` [Compound 62, [4-(4-Methyl-2-methylamino-thiazol-5-yl)-pyrimidin-2-yl]-(4-piperazin-l-yl-phenyl)-amine], the IC50 in experiment [1] was found to be 0.18 µM; in experiment [3] it was 0.26 µM; in experiment [4], 0.98 µM; in experiment [5], 0.19 µM; in experiment [7], 0.007 µM.
